Experimental data reported in US11241421B2, “Combination therapies for treating cancer” (UNIVERSITY OF VIRGINIA PATENT FOUNDATION, priority 2016, dated 2022).

Experiments:
[1] = system: CBFβ-SMMHC fusion protein; conditions: cited from earlier work
[2] = compared with daunorubicin; cited from earlier work
[3] = compared with daunorubicin; cited from earlier work; remark: listed apart in the source
[4] = compared with doxorubicin; cited from earlier work
[5] = system: Cbfb^+/MYH11; Nras^+/G12D leukemic cells; assay: Leukemia transplantation studies in mice (inv(16) AML model); format: in vivo; conditions: for white blood cell count: peripheral blood, doxorubicin 2 mg/kg single dose, AI-10-49 200 mg/kg daily intraperitoneally for 10 days, FIG. 1; for Lin-Sca1-c-Kit+ cell population (number of cells): spleen, flow cytometry, same dosing, FIG. 4
Method: The experiments with animals were performed in accordance with a protocol reviewed and approved by the University of Massachusetts Institutional Animal Care and Use Committee. An efficient mouse model of inv(16)AML was used. (L. Xue, et al., 2014.) Leukemic cells carrying Cbfb^+/MYH11 and Nras^+/G12D oncogenic alleles were generated in CD45.2 C57BL/6 mice, as previously described (Illendula, et al., 2015.) Briefly, 2×10^3 Cbfb^+/MYH11; Nras^+/G12D leukemic cells were transplanted into each of 16 sub-lethally irradiated six to eight-week-old CD45.1 C57BL/6 female mice. Five days post-transplant, mice were placed in 4 groups with 4 mice in each group: DMSO (control, 50 μL), Dox, AI-10-49, and Dox+AI-10-49. Both Dox groups received a single dose of doxorubicin (2 mg/kg) 5 days post-transplant. Both AI-10-49 groups received a daily dose of AI-10-49 (200 mg/kg) in DMSO injected intraperitoneally for 10 days. After this 10-day period, all mice were sacrificed and analyzed for leukemia burden via several measures. Mice were kept under observation by more than one person to determine the median leukemia latency, and were euthanized once signs of disease were detected, including reduced motility and grooming activity, hunched back, pale paws (anemia), and hypothermia. At time of euthanasia, peripheral blood and spleen cells were extracted and analyzed as previously described (Y. H. Kuo, et al., 2006.). Leukemia burden was analyzed in peripheral blood by measuring the total white blood cell counts, the number of cells in the c-kit(+)-gated population, spleen weight and cell number, and spleen Lin-Sca1-c-kit+ population. For Kit+ and Lin-Sca-Kit+ results, flow cytometry was used to measure the effect.

[6] = system: ME-1 cell line, a leukemia cell line with inv(16); conditions: cited from earlier work
CBFβ = target: T1, CBFβ (Homo sapiens, UniProt Q13951); conditions: cited from earlier work
T1 sequence (Q13951 1-182): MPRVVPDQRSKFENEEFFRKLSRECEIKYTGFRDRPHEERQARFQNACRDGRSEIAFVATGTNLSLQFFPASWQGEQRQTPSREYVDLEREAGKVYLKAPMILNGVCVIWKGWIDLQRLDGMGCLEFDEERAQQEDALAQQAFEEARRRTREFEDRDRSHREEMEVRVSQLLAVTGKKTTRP

[7] = relative to the methoxy compound; cited from earlier work

SMILES: COc1ccc2[nH]c(-c3ccccn3)nc2c1 [AI-4-57, 5-methoxy-2-(pyridin-2-yl)-1H-benzo[d]imidazole]
- binding to the CBFβ-SMMHC fusion protein [1]: binds to the CBFβ portion of the CBFβ-SMMHC fusion protein
- inhibition of CBFβ-SMMHC binding to the Runt domain of RUNX proteins [1]: inhibits its binding to the Runt domain of RUNX proteins

SMILES: CC(=O)[C@]1(O)Cc2c(O)c3c(c(O)c2[C@@H](O[C@H]2C[C@H](N)[C@H](O)[C@H](C)O2)C1)C(=O)c1ccccc1C3=O [Idarubicin]
- lipophilicity [2]: more lipophilic
- cellular uptake [3]: higher

SMILES: COc1cccc2c1C(=O)c1c(O)c3c(c(O)c1C2=O)C[C@@](O)(C(=O)CO)C[C@@H]3O[C@H]1C[C@H](N)[C@@H](O)[C@H](C)O1 [Epirubicin]
- half-life [4]: longer
- volume of distribution [4]: increased

SMILES: FC(F)(F)Oc1ccc2[nH]c(-c3ccc(OCCOCCOc4ccc(-c5nc6cc(OC(F)(F)F)ccc6[nH]5)nc4)cn3)nc2c1 [AI-10-49]
- white blood cell count [5]: reduced
- Lin-Sca1-c-Kit+ cell population (number of cells) [5]: modest effect
- inhibition of CBFβ-SMMHC binding to the Runt domain of RUNX proteins [1]: potent and CBFβ-SMMHC specific
- cell death [6]: induced cell death
- effect on CBFβ function (CBFβ): minimal effect

SMILES: FC(F)(F)Oc1ccc2[nH]c(-c3ccccn3)nc2c1 [A-10-47, 2-(pyridin-2-yl)-5-(trifluoromethoxy)-1H-benzo[d]imidazole]
- metabolic stability [7]: enhanced metabolic stability

SMILES: COc1cccc2c1C(=O)c1c(O)c3c(c(O)c1C2=O)C[C@@](O)(C(=O)CO)C[C@@H]3O[C@H]1C[C@H](N)[C@H](O)[C@H](C)O1 [Dox, doxorubicin]
- white blood cell count [5]: reduced
- Lin-Sca1-c-Kit+ cell population (number of cells) [5]: no effect
